The text below walks through data of PubChem BioAssay AID977628 (Broad Institute, 2014).

Results filed as inconclusive are left out. The source made the active and inactive calls.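 How the source made its calls: active means compound lowering the normal-ribosome reporter at least twice as much as the humanized-ribosome reporter, growth loss under a set limit; inconclusive means no clear call, values can overlap the other calls; inactive means the rest.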

In one assay the test system is E. coli mixed WT/h24 culture total growth, OD600, 24 h. Kind of assay: growth of wild-type and h24-humanized E. coli strains – h24 mutant RFP vs wild-type GFP, cherry-pick, dose response (AID 977628).
Regarding `CCCn1c(C(C)Nc2nc(-c3ccc(C)cc3)cs2)nc2ccccc21` (configuration not stated), the AC50 is above 100 µM.
`CN(CCOc1ccccc1)S(=O)(=O)c1ccccc1C#N` displayed a half-maximal activity concentration (AC50) above 100 µM.
On the same count and under the same terms, as for `CCOc1ccc(C(C)=O)cc1CN1C(=O)NC2(CCCCCCC2)C1=O`, the figure is above 100 µM; as for `O=C(Cc1ccc(Br)cc1)Nc1cccc(-c2cn3c(n2)SCC3)c1`, above 100 µM; as for `CNC(=O)c1ccsc1NC(=O)c1ccc(S(=O)(=O)N2CCc3ccccc32)cc1`, above 100 µM.
The compound `COc1ccccc1N1CCN(Cc2ccc(OC)c3ccccc23)CC1` registered an AC50 above 100 µM.
Same read-out and setting: as for `COc1ccc(OCCC(=O)OCC(=O)NCCC2=CCCCC2)cc1`, the figure is above 100 µM; as for `Cc1cc(C)c(OCC(=O)OCC(=O)N2CCc3ccccc3C2)c(C)c1`, above 100 µM.
For the compound `Cc1ccnc(NS(=O)(=O)c2ccc(NC(=O)c3ccc4c(c3)OCCO4)cc2)n1`, the AC50 was above 100 µM.
`CCN(CC)c1nc(Oc2ccc(C(=O)OC)cc2)nc(N2CCOCC2)n1` showed an AC50 above 100 µM.
`CCC(C(=O)Nc1ccsc1C(=O)OC)c1ccccc1` (configuration not stated) had an AC50 above 100 µM.
For the compound `O=C(NC1CCCCC1)C(c1cccc2ccccc12)n1c(=O)c(-c2ccco2)nc2ccccc21` (configuration not stated), the AC50 is above 100 µM.
The same measure, in the same setting: as for `OCCN(Cc1ccccc1)Cc1ccc(F)c(F)c1`, the figure is above 100 µM; as for `CCN(C(=O)COC(=O)CCc1ccccc1)c1ccccc1`, above 100 µM; as for `COc1cc2c(cc1OC)CN(CC(=O)Nc1ccccc1SC)CC2`, above 100 µM.
The same measure, in the same setting: as for `COc1ccc(CNC(=O)c2nc(S(=O)(=O)Cc3ccccc3)ncc2Cl)cc1`, the figure is above 100 µM; as for `Cc1cccc(NC(=O)c2c(C)nn(-c3ccccc3)c2Cl)c1`, above 100 µM; as for `COC(=O)c1ccc(OCC(=O)c2ccccc2OC)cc1`, above 100 µM.
Compound `COCc1c(C#N)c(NCCc2ccc(F)cc2)nc(C)c1[N+](=O)[O-]` had an AC50 above 100 µM.
Take `O=C(CC1SC(=O)N(Cc2ccccc2Cl)C1=O)Nc1nccs1` (configuration not stated): the AC50 is above 100 µM.
Consider `CCOC(=O)c1c(C)[nH]c(C)c1S(=O)(=O)NCCN1CCN(c2ccccc2F)CC1`, for which the half-maximal activity concentration (AC50) is above 100 µM.
On the same count and under the same terms, as for `COc1cccc(NC(=O)COC(=O)Cc2ccc(Br)cc2)c1`, the figure is above 100 µM; as for `CCCNc1ccc(C(=O)OCC)cc1[N+](=O)[O-]`, above 100 µM; as for `COc1ccc(/C=C/c2nc3ccccc3n2Cc2ccccc2OC)cc1`, above 100 µM.
Turning to `Cc1ccc(NC(=O)c2ccc([N+](=O)[O-])s2)cc1S(=O)(=O)N1CCOCC1`, the AC50 was above 100 µM.
`Cc1cc(C)c(OCCN(C)Cc2ccccc2)c(Br)c1` gave an AC50 above 100 µM.
On to `CC(C)Oc1nc(-c2ccccc2Cl)nc2ccccc12`, for which the AC50 was above 100 µM.
`NS(=O)(=O)c1cc(C(=O)OCC(=O)Nc2ccccc2[N+](=O)[O-])ccc1Cl`: the AC50 is above 100 µM.
Take `CC(=O)c1ccc(Sc2ccccc2N)c([N+](=O)[O-])c1`: the AC50 is above 100 µM.
Same read-out and setting: for `Brc1ccccc1Cn1c(-c2cncs2)nc2ccccc21` the value was above 100 µM; for `Cc1ccc(NC(=O)C2CCN(S(=O)(=O)c3ccc4c(c3)NC(=O)CO4)CC2)cc1`, above 100 µM; for `S=c1nc(-c2cccc(Br)c2)[nH][nH]1`, above 100 µM.
The compound `CN(C)CCNc1ncnc2c1sc1nc(N3CCCC3)c3c(c12)CC(C)(C)OC3` had an AC50 above 100 µM.
In turn, `c1ccc(Nc2ccc3ccccc3c2)cc1` had an AC50 above 100 µM.
`O=C(c1cc(S(=O)(=O)N2CCOCC2)ccc1Cl)N1CCc2ccccc2C1` yielded an AC50 above 100 µM.
On the same count and under the same terms, as for `Cc1cccc(C)c1NC(=O)C1(C)CSCC(=O)N1CCOc1ccccc1` (configuration not stated), the figure is above 100 µM; as for `Cc1ccc(S(=O)(=O)NCc2c(-c3ccccc3)noc2C)cc1`, above 100 µM; as for `O=C(NCc1ccc2c(c1)OCO2)c1sccc1Br`, above 100 µM.
Consider `Cc1n[nH]c(C)c1S(=O)(=O)N1CCCC(C(=O)Nc2ccc(Br)cc2)C1` (configuration not stated), for which the concentration at half-maximal activity (AC50) was above 100 µM.
`Cc1cccc(N2CCN(Cc3nc(-c4ccc(F)cc4F)oc3C)CC2)n1` came in with an AC50 above 100 µM.
The same measure, in the same setting: for `CC(=O)c1ccc(OCC(=O)Nc2ccc3c(c2)CCC3)cc1` the value was above 100 µM.
Turning to `COc1ccc(OC)c(S(=O)(=O)Nc2cccc3ccc(O)cc23)c1`, the AC50 is above 100 µM.
The same measure, in the same setting: for `O=S(=O)(NOCc1ccc(Cl)cc1)c1ccc(Cl)cc1` the value was above 100 µM.
`COc1ccc(C(CC(=O)c2ccc(O)cc2)S(=O)(=O)c2ccc(C)cc2)cc1` (configuration not stated) came in with an AC50 above 100 µM.
On the same count and under the same terms, as for `CCN(CC)S(=O)(=O)c1ccc(N2CCCC2)c(NC(=O)c2ccccc2OC)c1`, the figure is above 100 µM; as for `COc1cc2ccccc2cc1C(=O)NCC(c1cccs1)N(C)C` (configuration not stated), above 100 µM; as for `Cc1ccccc1SCC(=O)OCC(=O)Nc1sccc1C(N)=O`, above 100 µM.
Compound `O=C1c2ccccc2CSc2c(O)cccc21` registered a half-maximal activity concentration (AC50) above 100 µM.
`CCOC(=O)c1cc(-c2ccc(OC)cc2)n[nH]1` yielded an AC50 above 100 µM.
The same measure, in the same setting: for `Cc1cccc(SCC(=O)Nc2ccccc2[N+](=O)[O-])c1` the value was above 100 µM; for `COc1cc(OC)c(NS(=O)(=O)c2cccc(C(=O)OCC(=O)NCC3CCCO3)c2)cc1Cl` (configuration not stated), above 100 µM; for `COc1ccc(NC(=O)c2cccs2)cc1C(=O)N1CCN(c2ccccc2)CC1`, above 100 µM.
`COc1ccccc1-c1noc2ncnc(Nc3ccccc3C)c12` displayed an AC50 above 100 µM.
On the same count and under the same terms, as for `COc1ccc2c(c1)-c1nc(N)sc1CC2`, the figure is above 100 µM.
`COc1ccc(CSc2nc3ccccc3c(=O)n2CCCN2CCOCC2)cc1F` displayed an AC50 above 100 µM.
`COc1ccc(NC(=O)Nc2cccc3c2O[C@H](CN(C)S(=O)(=O)c2ccc(Cl)cc2)[C@@H](C)CN([C@@H](C)CO)C3=O)cc1` displayed an AC50 above 100 µM.
Consider `Cc1ccc(NC(=O)c2ccccc2F)c(NC(=O)c2ccccc2F)c1`, for which the AC50 was above 100 µM.
For the compound `Cc1cccc(C)c1NC(=O)CNC(=O)C(C)N1CCN(c2cccc(Cl)c2)CC1` (configuration not stated), the AC50 was above 100 µM.
`COc1ccccc1C1CCN(C(=O)c2cccs2)CC1`: the AC50 was above 100 µM.
On the same count and under the same terms, for `CCOCCCNC(=O)C(NC(=O)c1ccccc1O)c1ccc(C)cc1` (configuration not stated) the value was above 100 µM; for `c1ccc(Cc2nc3ccccc3s2)cc1`, above 100 µM.
Same read-out and setting: for `CS(=O)(=O)Nc1ccccc1C(=O)NCCSc1ccccc1` the value was above 100 µM; for `O=C(Nc1ccc(Cl)cn1)c1ccc([N+](=O)[O-])o1`, above 100 µM; for `COCC#Cc1ccc2c(c1)O[C@H](CN(C)C(=O)c1ccccc1)[C@@H](C)CN([C@H](C)CO)S2(=O)=O`, above 100 µM.
In turn, `COC(=O)CNC(=O)COC(=O)c1ccc(Cl)nc1` showed an AC50 above 100 µM.
The compound `O=S(=O)(Nc1ccccc1N1CCCCC1)c1cccs1` gave an AC50 above 100 µM.
The compound `Nc1ccc2nc(-c3ccc(Cl)cc3)[nH]c2c1` came in with a half-maximal activity concentration (AC50) above 100 µM.
`O=C(c1sc2ccccc2c1Cl)N1CCC2(CC1)OCCO2` gave an AC50 above 100 µM.

The next assay has as its system E. coli WT GFP strain growth, fluorescence, 24 h. Described as above.
As for `CCCCNc1ccc2c(c1)OC[C@@H](Cc1ccccc1)NS2(=O)=O`, the AC50 is > 100 µM (inactive).
Turning to `COc1ccccc1Cn1c(=S)[nH]c2ccc(F)cc2c1=O`, the AC50 was > 100 µM (inactive).
For `CN(C)CCN(C(=O)c1ccc2c(c1)CCCC2)c1nc2c(F)cccc2s1`, the AC50 was > 100 µM (inactive).
For `CC1Sc2ccc(S(=O)(=O)NCc3ccccc3)cc2NC1=O` (configuration not stated), the AC50 was > 100 µM (inactive).
